Reference: publication PMC7190413 (Journal of cystic fibrosis : official journal of the …, 2019)
Where two headings read alike, the source gives them in different places.

Legend:
G551D-CFTR [1] = target: T1, G551D-CFTR (Homo sapiens, UniProt P13569, G551D); experiment: Fractional PM activity; assay type: cell-based; settings: CFBE; forskolin-stimulated, mono-therapy or dual potentiator treatment; Fig. 5d
G551D-CFTR [2] = target: T1, G551D-CFTR; experiment: Short-circuit current; assay type: cell-based; settings: for forskolin-activated Isc relative to that of WT-CFTR: forskolin 20 μM
S1251N-CFTR = experiment: Fractional PM activity; assay type: cell-based, human; settings: CFBE; forskolin plus single potentiator; Fig. 5f
G551D-CFTR [3] = target: T1, G551D-CFTR; experiment: Short-circuit current; assay type: cell-based; settings: CFBE; forskolin 20 μM then acute VX-770 10 μM; Fig. 5a,b
G551D-CFTR [4] = target: T1, G551D-CFTR; experiment: Single-channel activity in reconstituted planar phospholipid bilayer; assay type: biochemical; settings: PKA-activated, 28–30°C

T1 sequence (P13569 whole entry G551D): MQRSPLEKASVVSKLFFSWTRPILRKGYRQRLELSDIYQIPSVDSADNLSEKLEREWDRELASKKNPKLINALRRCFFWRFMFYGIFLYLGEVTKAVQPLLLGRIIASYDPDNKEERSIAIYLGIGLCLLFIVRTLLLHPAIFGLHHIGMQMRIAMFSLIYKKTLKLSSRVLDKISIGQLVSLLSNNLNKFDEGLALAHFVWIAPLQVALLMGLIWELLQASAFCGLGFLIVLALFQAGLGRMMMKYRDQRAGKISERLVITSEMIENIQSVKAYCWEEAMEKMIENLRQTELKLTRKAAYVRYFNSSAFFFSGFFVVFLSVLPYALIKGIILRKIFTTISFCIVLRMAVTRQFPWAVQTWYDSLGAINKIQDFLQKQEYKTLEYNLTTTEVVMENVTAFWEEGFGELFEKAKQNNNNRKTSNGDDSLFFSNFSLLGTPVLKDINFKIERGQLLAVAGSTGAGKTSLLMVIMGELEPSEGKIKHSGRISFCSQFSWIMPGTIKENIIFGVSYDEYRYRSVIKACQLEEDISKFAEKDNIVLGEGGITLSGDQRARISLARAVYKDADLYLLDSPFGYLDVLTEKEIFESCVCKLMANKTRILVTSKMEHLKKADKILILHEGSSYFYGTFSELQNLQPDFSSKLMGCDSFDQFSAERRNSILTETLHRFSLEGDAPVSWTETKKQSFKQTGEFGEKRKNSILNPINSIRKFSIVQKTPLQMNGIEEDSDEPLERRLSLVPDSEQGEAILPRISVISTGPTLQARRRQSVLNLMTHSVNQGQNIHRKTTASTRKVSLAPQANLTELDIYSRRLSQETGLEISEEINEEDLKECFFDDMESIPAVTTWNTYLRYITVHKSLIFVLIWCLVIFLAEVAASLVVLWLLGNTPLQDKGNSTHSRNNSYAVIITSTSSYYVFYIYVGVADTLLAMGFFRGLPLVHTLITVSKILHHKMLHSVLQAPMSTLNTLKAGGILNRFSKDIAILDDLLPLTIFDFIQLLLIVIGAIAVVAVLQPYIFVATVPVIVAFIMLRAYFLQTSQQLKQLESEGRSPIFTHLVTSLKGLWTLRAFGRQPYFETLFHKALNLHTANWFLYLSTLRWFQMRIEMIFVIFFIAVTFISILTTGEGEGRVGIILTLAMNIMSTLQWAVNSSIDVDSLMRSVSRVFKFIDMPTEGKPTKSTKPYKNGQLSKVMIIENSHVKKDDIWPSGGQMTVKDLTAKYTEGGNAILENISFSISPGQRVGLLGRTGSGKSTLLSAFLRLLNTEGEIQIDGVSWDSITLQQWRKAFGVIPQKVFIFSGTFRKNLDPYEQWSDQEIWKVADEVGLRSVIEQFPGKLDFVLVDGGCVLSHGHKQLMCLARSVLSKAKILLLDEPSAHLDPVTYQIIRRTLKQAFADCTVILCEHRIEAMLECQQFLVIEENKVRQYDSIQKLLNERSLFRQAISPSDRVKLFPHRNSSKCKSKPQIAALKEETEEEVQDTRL

| fractional PM activity of G551D, of the WT (G551D-CFTR [1]) | lower potency in comparison to VX-770 (G551D-CFTR [2]; HNE, G551D-CFTR, Isc EC50) | EC50 (G551D-CFTR [2]; read-out: EC50 for G551D-CFTR potentiation, HNE, Isc, Supplementary Fig. 6e,f) | EC50 (G551D-CFTR [2]) | forskolin-activated Isc relative to that of WT-CFTR (G551D-CFTR [2]; HNE with G551D on both alleles) | forskolin-activated Isc relative to that of WT-CFTR (G551D-CFTR [2]; HNE with one copy of G551D) | G551D-CFTR Isc, of WT-function (G551D-CFTR [3]) | open probability (Po) of phosphorylated G551D-CFTR (G551D-CFTR [4]; 3 μM VX-770) | open probability (Po) of phosphorylated G551D-CFTR upon addition of apigenin (G551D-CFTR [4]; 50 μM apigenin in the presence of 3 μM VX-770) | Compound | fractional PM activity of S1251N after single potentiator therapy, of WT (S1251N-CFTR) |
| --- | --- | --- | --- | --- | --- | --- | --- | --- | --- | --- |
| 7% | 7 fold | ~0.3 µM |  |  |  |  |  |  | CC1(C)Cc2c(sc(NC(=O)c3ccn[nH]3)c2C(N)=O)C(C)(C)O1 [ABBV-974] | ~ 80% |
| 6% |  |  | ~0.04 µM | ~ 50% | ~ 25% | ~ 6% | ~ 0.08 |  | CC(C)(C)c1cc(C(C)(C)C)c(NC(=O)c2c[nH]c3ccccc3c2=O)cc1O [VX-770, ivacaftor] | ~ 80% |
|  |  |  |  |  |  |  |  | 0.14 | O=c1cc(-c2ccc(O)cc2)oc2cc(O)cc(O)c12 [apigenin] |  |
